Measurements taken from patent US20170020900A1, “METHODS FOR SCREENING ANTIMICROBIAL AND ANTIVIRAL COMPOUNDS AND USES THEREOF” (The General Hospital Corporation, priority 2006, published 2017).
Values after ≈ are worked out from the molar mass of the structure shown.

How the values were obtained:
C. albicans strain MLR62 [1] = assay: C. elegans-Candida killing assay, compound library screen in 96-well plates; assay type: in vivo, Candida albicans; conditions: positive control of the screen; <25% alive in PBS
Experimental: For testing the efficacy of chemical compounds, C. albicans strain MLR62 was inoculated into 2 ml of YPD and grown at 30° C. for 24 hours; 10 μl of the culture was spread on 35-mm tissue-culture plates (Falcon) containing brain heart infusion (BHI) agar (Difco) with kanamycin (45 μg/ml), ampicillin (100 μg/ml), and streptomycin (100 μg/ml). The plates were incubated at 30° C. for 24 hours. C. elegans animals at the L4 developmental stage (grown as detailed above under C. elegans liquid medium killing assays) were transferred from a lawn of E. coli HB101 onto C. albicans lawns on BHI medium, incubated at 25° C. for 30 minutes, and then pipetted in 50 μl into 96-well plate wells that contained 100 μl liquid media (79% of M9 buffer, 20% BHI media, 2 μM cholesterol and 90 μg/ml kanamycin). C. elegans glp-4; sek-1 nematodes were pipetted into 96-well plates that contained compounds from chemical libraries. Library 1361 was assembled by Biomol and contains well-characterized compounds that affect many different aspects of cellular pathways. The NINDS custom collection (plates 501-503) was put together by MicroSource Discovery Systems for the National Institute of Neurological Disorders and Stroke (NINDS), the Huntington's Disease Society of America (HDSA), the Amyotrophic Lateral Sclerosis (ALS) Association, and the Hereditary Disease Foundation (HDF). It mostly contains FDA approved drugs. The Prestwick library (plate 1569) contains compounds that are known to be safe and bioactive in humans. The majority of the compounds are marketed drugs.
On day 6, nematodes were evaluated for survival, filament formation and optical density. The plates were incubated at 25° C. and examined on day 6 for survival with a Nikon SMZ645 dissecting microscope. In addition, images were obtained using a CellWorx High Content Cell Analysis System (Applied Precision) at 4× magnification. Dead worms were counted but not removed. […] Each compound was also scored by the number of dead worms in the well that developed hyphea. […] Compounds were categorized as having a minimal effect on filament formation if 25-75% of the dead worms developed hyphea.
Approximately 25 nematodes were used to analyze each chemical compound tested. Two controls were used in all plates. […] In this pilot screen, we considered a compound as a “hit” when survival in the compound well with was 50% and above of the median survival of the control wells. Depending on the compound library, the final concentration of the compounds was 33.33 μg/ml, 13.33 μg/ml, or […].

C. albicans strain MLR62 [2] = assay: C. elegans liquid medium killing assay with established antifungals; assay type: in vivo, Candida albicans
Experimental: (§1) Candida strains were inoculated in 2 ml of YPD and grown at 30° C. for 24 hours. Lawns were prepared by spreading 10 μl of each culture on 35 mm tissue-culture plates (Falcon) containing solid brain heart infusion (BHI) media (Difco) with kanamycin (45 μg/ml), ampicillin (100 μg/ml), and streptomycin (100 μg/ml). The plates were incubated at 30′C for 24 hours followed by 25° C. for 24 hours. glp-4; sek-1 and glp-4 worms were grown at 15° C. until they reached the L2 stage, and then they were transferred to 25° C. for 24 h. N2 wild-type worms were grown at 15° C. for 72 h, until they reached the L4 stage. Approximately 100 worms were picked onto each lawn and allowed to feed for 30 minutes to 2 hours. The worms were washed off the plates with M9 buffer and allowed to crawl on unseeded BHI plates to remove yeast cells from their cuticles. Roughly 70-80 worms were then picked to wells in a six-well microtiter dish that contained 1.5 ml liquid medium of 79% M9 buffer, 20% BHI, 2 μM cholesterol and 90 μg/ml kanamycin. The plates were incubated at 25° C. overnight and then examined at 24-hour intervals for survival.
To develop a system that allows high throughput screening for antifungal compounds, we first evaluated whether established antifungals prolong the survival of nematodes infected with Candida spp. For this, we used different C. albicans isolates as well as non-albicans strains, including those used as reference strains by clinical microbiology laboratories ([…], N. C. F. C. L. Methods for antifungal disk diffusion susceptibility testing of yeasts; approved guideline M44-A. (National Committee for Clinical Laboratory Standards, Wayne, Pa., 2004)).

C. albicans MLR62 = assay: Fungal burden within C. elegans (cfu per worm); assay type: in vivo, Candida albicans; conditions: for concentration of Candida cfu in the nematodes: data not shown
Experimental: The number of C. albicans colony forming units in C. elegans was quantified based on the protocol detailed by Tang et al., Infect. Immun. 73:8219 (2005) and Garsin et al., Proc. Natl. Acad Sci. USA 98:10892 (2001) with a few modifications. C. albicans strain MLR62 lawns were prepared on BHI as described above. C. elegans glp-4; sek-1 worms were exposed to the lawns for 30 minutes and then moved to liquid media and incubated at 25° C. in the presence or absence of antifungal agents. At appropriate time points, 3 groups of 10 worms each were washed twice in 8 μl drops of M9 buffer on BHI agar plates, in order to remove surface Candida. Each group of 10 worms was then disrupted using a Pellet Pestle Motor (Kontes) and plated on YPD agar containing kanamycin (45 μg/ml), ampicillin (100 μg/ml), and streptomycin (100 μg/ml). The plates were incubated for 48 hours at 30′C and colonies were counted.

DAY185 = conditions: Candida strain DAY185; cited from earlier work
C. albicans ATCC#90028 = conditions: cited from earlier work
C. krusei ATCC#6258 [3] = conditions: cited from earlier work
[4] = tested on: C. parapsilosis ATCC#22019; conditions: cited from earlier work
[5] = tested on: E. faecalis strain MMH594; assay: C. elegans-E. faecalis liquid infection (curing) assay in 96-well plates, worm survival; assay type: in vivo, Enterococcus faecalis; conditions: glp-4, sek-1 C. elegans infected with E. faecalis MMH594
Experimental: (§2) Worm survival was scored manually after 6 days of incubation. […] MICs were determined against E. faecalis strain MMH594 using 2-fold dilution in BHI media according to the broth microdilution protocol of the NCCLS (CLSI) (National Committee for Clinical Laboratory Standards, Approved Standard M7-A5; Methods for Dilution Antimicrobial Susceptibility Tests for Bacteria that Grow Aerobically, Villanova, Pa.: NCCLS (2000)).

E. faecalis = assay: Bacterial colonization of the nematode intestine (CFU per worm); assay type: in vivo, Enterococcus faecalis; conditions: 100% = 3.28 × 10^4 CFU/worm
Experimental: Infected worms were washed three times with M9 buffer containing 1 mM sodium azide. Approximately 10 worms were transferred to a 2 ml microcentrifuge tube and the volume was brought to 250 μl. Fifty μl of buffer was removed and plated to determine the number of external CFU.

[6] = tested on: E. faecalis strain MMH594; assay: MIC, 2-fold broth microdilution in BHI media (NCCLS); assay type: cell-based, Enterococcus faecalis; conditions: E30 value is at its aqueous solubility limit
Experimental: as §2

C. krusei ATCC#6258 [7] = assay type: in vivo; conditions: fluconazole 32 μg/ml, fluconazole-resistant strain
Experimental: as §1
To develop a system that allows high throughput screening for antifungal compounds, we first evaluated whether established antifungals prolong the survival of nematodes infected with Candida spp. […]

[8] = caspofungin 8 μg/ml, amphotericin B 16 μg/ml, fluconazole 32 μg/ml, FIG. 17A

SMILES | nematode survival at day 6 (C. albicans strain MLR62 [1]) [%] | prolongation of nematode survival (C. albicans strain MLR62 [2]; [8]) | lowest effective concentration (effective at concentrations as low as) (C. albicans strain MLR62 [2]; nematode survival, P<0.0001) [µg/mL] | fungal burden, average colony-forming units (C. albicans MLR62; 8 μg/ml, untreated 170.8±63.5 cfu per worm, P<0.001) [cfu per worm] | MIC (DAY185) [µg/mL] | MIC (C. albicans ATCC#90028) [μg/ml for caspofungin] | MIC (C. krusei ATCC#6258 [3]) | MIC [4] | Therapeutic Concentration [5] [µg/mL] | Fold Survival vs untreated ([5]; untreated = 24% survival) | Amt. Colonization vs untreated (E. faecalis) [%] | MIC [6] [µg/mL] | effect on nematode survival (C. krusei ATCC#6258 [7]) | concentration of Candida cfu in the nematodes (C. albicans MLR62) | prolongation of nematode survival (C. albicans strain MLR62 [2]; in vivo)
CC[C@H](C)C[C@H](C)CCCCCCCCC(=O)N[C@H]1C[C@@H](O)[C@@H](NCCN)NC(=O)[C@@H]2[C@@H](O)CCN2C(=O)[C@H]([C@H](O)CCN)NC(=O)[C@H]([C@H](O)[C@@H](O)c2ccc(O)cc2)NC(=O)[C@@H]2C[C@@H](O)CN2C(=O)[C@H]([C@@H](C)O)NC1=O [caspofungin] | > 75 | effective | 1 | 0.3±0.2 | 2 (≈ 1.83 µM) | 1 | 0.5 to 2 µg/mL | 0.5 to 2 µg/mL | – | – | – | – | – | – | –
O=c1oc2ccccc2c(O)c1/C(=C/C(=N/Nc1ccccc1)c1ccc(-c2ccc(Br)cc2)cc1)c1ccccc1 [Compound G1] | – | – | – | – | – | – | – | – | 25 | 3.3 | 6 | 31.3 (≈ 51 µM) | – | – | –
OC(Cn1cncn1)(Cn1cncn1)c1ccc(F)cc1F [fluconazole] | – | effective | – | – | 2 (≈ 6.53 µM) | – | 32 µg/mL (≈ 104 µM) | 2 µg/mL (≈ 6.53 µM) | – | – | – | – | no effect | significantly decreased | –
C[C@@H]1[C@H](O)[C@@H](C)/C=C/C=C/C=C/C=C/C=C/C=C/C=C/[C@H](O[C@@H]2O[C@H](C)[C@@H](O)[C@H](N)[C@@H]2O)C[C@@H]2O[C@](O)(C[C@@H](O)C[C@@H](O)[C@H](O)CC[C@@H](O)C[C@@H](O)CC(=O)O[C@H]1C)C[C@H](O)[C@H]2C(=O)O [amphotericin B] | – | – | – | – | 0.5 (≈ 0.541 µM) | – | MIC: 2 μg/ml for amphotericin B^d, | MIC: 2 μg/ml for amphotericin B^d, | – | – | – | – | – | significantly decreased | effective
